Source: ChEMBL document CHEMBL4507326, “Data for DCP probe TP-030-2” (2021)

Key:
Aurora kinase B = Aurora kinase B (Homo sapiens, UniProt Q96GD4); test: AurB [Aur1(AURBPGE1)] Takeda global kinase panel
[1] = molecular target: Dual specificity mitogen-activated protein kinase kinase 1 (Homo sapiens, UniProt Q02750); test: MEK1 [MAP2K1(M2K1LGF1)] Takeda global kinase panel
[2] = molecular target: Serine/threonine-protein kinase pim-3 (Homo sapiens, UniProt Q86V86); test: Pim3(PIM3LGP1) Takeda global kinase panel
[3] = molecular target: Histamine H1 receptor (Homo sapiens) (UniProt P35367); conditions: Compound concentration 10.0 uM
[4] = molecular target: G protein-coupled receptor kinase 5 (Homo sapiens, UniProt P34947); test: GRK5(GRK5LGP1) Takeda global kinase panel
[5] = molecular target: Protein kinase C alpha type (Homo sapiens, UniProt P17252); test: PKCalpha(PRKALGY1) Takeda global kinase panel
[6] = molecular target: Bone morphogenetic protein receptor type-2 (Homo sapiens, UniProt Q13873); test: BMPR2(BMR2LGN1) Takeda global kinase panel
[7] = molecular target: Muscarinic acetylcholine receptor M2 (Homo sapiens) (UniProt P08172); conditions: Compound concentration 10.0 uM
[8] = molecular target: Serine/threonine-protein kinase DCLK3 (Homo sapiens, UniProt Q9C098); test: DCAMKL3(DCL3LGP1) Takeda global kinase panel
[9] = molecular target: Alpha-1B adrenergic receptor (Homo sapiens) (UniProt P35368); conditions: Compound concentration 10.0 uM
[10] = molecular target: Dual specificity mitogen-activated protein kinase kinase 6 (Homo sapiens, UniProt P52564); test: MKK6 [MAP2K6(M2K6LGF1)] Takeda global kinase panel
TGF-beta receptor type-1 = TGF-beta receptor type-1 (Homo sapiens, UniProt P36897); test: TGFbetaR1(TGF1LGF1) Takeda global kinase panel
[11] = molecular target: Insulin receptor-related protein (Homo sapiens, UniProt P14616); test: IRR(INSSLGF1) Takeda global kinase panel
[12] = molecular target: Tyrosine-protein kinase ITK/TSK (Homo sapiens, UniProt Q08881); test: ITK(ITK1CGF1) Takeda global kinase panel
[13] = molecular target: Phosphatidylinositol 4,5-bisphosphate 3-kinase catalytic subunit beta isoform (Homo sapiens, UniProt P42338); test: PIK3CB(PI3BCGRK) Takeda global kinase panel
[14] = molecular target: Ribosomal protein S6 kinase alpha-5 (Homo sapiens, UniProt O75582); test: MSK1(R6A5LGY1) Takeda global kinase panel
[15] = molecular target: Beta-adrenergic receptor kinase 1 (Homo sapiens, UniProt P25098); test: BARK1 [GRK2(ADR1LGG5)] Takeda global kinase panel
[16] = molecular target: Calcium/calmodulin-dependent protein kinase type IV (Homo sapiens, UniProt Q16566); test: CaMK4(CAM4LGY1) Takeda global kinase panel
[17] = molecular target: Cyclin-dependent kinase 12 (Homo sapiens, UniProt Q9NYV4); test: CRK7(CD12PHS1) Takeda global kinase panel
[18] = molecular target: D(3) dopamine receptor (Homo sapiens) (UniProt P35462); conditions: Compound concentration 10.0 uM
[19] = molecular target: Bromodomain-containing protein 4 (Homo sapiens, UniProt O60885); test: BRD4(BRD4LGRC) Takeda global kinase panel
Aurora kinase A = Aurora kinase A (Homo sapiens, UniProt O14965); test: AurA [Aur2(AURALGF1)] Takeda global kinase panel
[20] = molecular target: Wee1-like protein kinase 2 (Homo sapiens, UniProt P0C1S8); test: Wee1B(WE1BLGF1) Takeda global kinase panel
[21] = molecular target: voltage-gated sodium channel, site 2 (Rattus norvegicus, UniProt F1LQQ7+O08562+O88420+O88457+P04774+P04775+P08104+P15389+P15390+Q62968); test: Inhibition of Sodium Channel, Site 2 at 10 µM in the Eurofins-Panlabs radioligand binding assay (Eurofins_assay_279510); format: protein assay; set-up: ligand concentration 5 nM, non-specific ligand with concentration 100 µM Veratridine, incubation time 60 min, incubation temperature 37 °C; conditions: male, Wistar, rat whole brain (except cerebellum) membranes, probe [3H] Batrachotoxinin, compound concentration 10 uM
[22] = molecular target: Adenosine receptor A2a (Homo sapiens) (UniProt P29274); conditions: Compound concentration 10.0 uM
[23] = molecular target: Serine/threonine-protein kinase tousled-like 1 (Homo sapiens, UniProt Q9UKI8); test: TLK1(TLK1LGP1) Takeda global kinase panel
[24] = molecular target: Serine/threonine-protein kinase 32A (Homo sapiens, UniProt Q8WU08); test: YANK1(S32APHY1) Takeda global kinase panel
[25] = molecular target: Mitogen-activated protein kinase 13 (Homo sapiens, UniProt O15264); test: p38delta(MP13LGP1) Takeda global kinase panel
[26] = molecular target: Dual specificity tyrosine-phosphorylation-regulated kinase 2 (Homo sapiens, UniProt Q92630); test: DYRK2(DYR2LGY1) Takeda global kinase panel
[27] = molecular target: Cyclin-dependent kinase 9 (Homo sapiens, UniProt P50750); test: CDK9(CDK9CGS1) Takeda global kinase panel
[28] = molecular target: Alpha-1B adrenergic receptor (Homo sapiens) (UniProt P35368); test: Adrenergic alpha1B Eurofins-Panlabs radioligand binding assay; set-up: ligand concentration 0.2 nM; conditions: Compound concentration 10.0 uM
[29] = molecular target: Serine/threonine-protein kinase B-raf (Homo sapiens, UniProt P15056); test: BRAF(BRAFLGY1) Takeda global kinase panel
[30] = molecular target: Serine/threonine-protein kinase pim-1 (Homo sapiens, UniProt P11309); test: Pim1(PIM1LGP1) Takeda global kinase panel
[31] = molecular target: Histamine H2 receptor (Homo sapiens) (UniProt P25021); conditions: Compound concentration 10.0 uM
Ephrin type-A receptor 8 = Ephrin type-A receptor 8 (Homo sapiens, UniProt P29322); test: EphA8(EPA8LGF1) Takeda global kinase panel
[32] = molecular target: Muscarinic acetylcholine receptor M2 (Homo sapiens) (UniProt P08172); conditions: Compound concentration 10.0 uM; remark: listed apart in the source
[33] = molecular target: 5-hydroxytryptamine receptor 6 (Homo sapiens) (UniProt P50406); conditions: Compound concentration 10.0 uM
[34] = molecular target: Mitogen-activated protein kinase 9 (Homo sapiens, UniProt P45984); test: JNK2(MAP9LGF1) Takeda global kinase panel
[35] = molecular target: PAS domain-containing serine/threonine-protein kinase (Homo sapiens, UniProt Q96RG2); test: PASK(PASKPHY1) Takeda global kinase panel
[36] = molecular target: Serine/threonine-protein kinase 33 (Homo sapiens, UniProt Q9BYT3); test: STK33(ST33LGF1) Takeda global kinase panel
Ephrin type-B receptor 4 = Ephrin type-B receptor 4 (Homo sapiens, UniProt P54760); test: EphB4(EPB4LGY1) Takeda global kinase panel
[37] = molecular target: Acetylcholine receptor subunit alpha (Homo sapiens) (UniProt P02708); test: Inhibition of Nicotinic Acetylcholine D1, Bungarotoxin at 10 µM in the Eurofins-Panlabs radioligand binding assay (Eurofins_assay_258700); conditions: Compound concentration 10.0 uM

Muscarinic acetylcholine receptor M2 (Homo sapiens), sequence (P08172 whole entry): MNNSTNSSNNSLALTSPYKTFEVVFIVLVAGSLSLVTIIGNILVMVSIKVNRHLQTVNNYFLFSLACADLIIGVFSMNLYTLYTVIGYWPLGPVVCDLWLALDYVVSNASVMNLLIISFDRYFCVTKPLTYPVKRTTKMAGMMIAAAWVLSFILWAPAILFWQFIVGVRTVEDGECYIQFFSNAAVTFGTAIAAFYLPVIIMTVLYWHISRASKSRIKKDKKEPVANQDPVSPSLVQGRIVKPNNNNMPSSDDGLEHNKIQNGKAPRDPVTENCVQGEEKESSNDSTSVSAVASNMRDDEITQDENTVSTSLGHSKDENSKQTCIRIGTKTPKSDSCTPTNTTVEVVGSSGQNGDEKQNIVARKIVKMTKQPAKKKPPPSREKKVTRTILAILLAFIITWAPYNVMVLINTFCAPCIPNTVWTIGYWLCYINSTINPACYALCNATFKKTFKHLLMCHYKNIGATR
Alpha-1B adrenergic receptor (Homo sapiens), sequence (P35368 whole entry): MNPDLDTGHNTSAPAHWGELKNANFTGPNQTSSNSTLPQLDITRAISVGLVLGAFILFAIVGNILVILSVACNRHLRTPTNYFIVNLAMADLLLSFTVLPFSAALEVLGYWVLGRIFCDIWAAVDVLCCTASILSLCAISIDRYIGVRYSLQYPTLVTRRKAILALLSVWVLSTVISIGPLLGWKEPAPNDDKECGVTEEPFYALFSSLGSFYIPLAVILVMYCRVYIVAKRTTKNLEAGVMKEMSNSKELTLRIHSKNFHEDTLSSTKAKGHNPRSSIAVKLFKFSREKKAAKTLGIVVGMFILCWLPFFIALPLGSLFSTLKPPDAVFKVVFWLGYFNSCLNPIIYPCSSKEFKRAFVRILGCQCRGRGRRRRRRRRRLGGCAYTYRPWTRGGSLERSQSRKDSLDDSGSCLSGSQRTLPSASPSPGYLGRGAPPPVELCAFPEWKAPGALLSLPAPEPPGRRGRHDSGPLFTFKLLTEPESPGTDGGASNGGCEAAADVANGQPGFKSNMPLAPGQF
Beta-adrenergic receptor kinase 1, sequence (P25098 whole entry): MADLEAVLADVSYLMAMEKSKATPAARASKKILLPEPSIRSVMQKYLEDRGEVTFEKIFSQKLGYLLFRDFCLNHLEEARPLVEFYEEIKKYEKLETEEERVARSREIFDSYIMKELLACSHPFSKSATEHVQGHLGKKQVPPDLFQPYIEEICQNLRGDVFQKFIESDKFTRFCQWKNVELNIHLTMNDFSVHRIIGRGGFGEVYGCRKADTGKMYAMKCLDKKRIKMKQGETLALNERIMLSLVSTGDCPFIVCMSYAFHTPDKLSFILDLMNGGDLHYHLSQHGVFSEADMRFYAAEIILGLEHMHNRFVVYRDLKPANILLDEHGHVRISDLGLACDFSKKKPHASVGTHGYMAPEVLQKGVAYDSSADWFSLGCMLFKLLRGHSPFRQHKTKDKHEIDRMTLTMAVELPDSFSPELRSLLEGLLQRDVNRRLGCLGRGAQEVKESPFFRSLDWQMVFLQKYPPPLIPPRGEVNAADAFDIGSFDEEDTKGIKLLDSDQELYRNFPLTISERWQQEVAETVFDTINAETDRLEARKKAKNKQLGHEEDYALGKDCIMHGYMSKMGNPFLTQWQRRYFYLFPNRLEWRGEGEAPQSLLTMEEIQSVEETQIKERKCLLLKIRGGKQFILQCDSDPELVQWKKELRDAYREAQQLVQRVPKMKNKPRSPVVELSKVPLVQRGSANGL
Ephrin type-B receptor 4, sequence (P54760 whole entry): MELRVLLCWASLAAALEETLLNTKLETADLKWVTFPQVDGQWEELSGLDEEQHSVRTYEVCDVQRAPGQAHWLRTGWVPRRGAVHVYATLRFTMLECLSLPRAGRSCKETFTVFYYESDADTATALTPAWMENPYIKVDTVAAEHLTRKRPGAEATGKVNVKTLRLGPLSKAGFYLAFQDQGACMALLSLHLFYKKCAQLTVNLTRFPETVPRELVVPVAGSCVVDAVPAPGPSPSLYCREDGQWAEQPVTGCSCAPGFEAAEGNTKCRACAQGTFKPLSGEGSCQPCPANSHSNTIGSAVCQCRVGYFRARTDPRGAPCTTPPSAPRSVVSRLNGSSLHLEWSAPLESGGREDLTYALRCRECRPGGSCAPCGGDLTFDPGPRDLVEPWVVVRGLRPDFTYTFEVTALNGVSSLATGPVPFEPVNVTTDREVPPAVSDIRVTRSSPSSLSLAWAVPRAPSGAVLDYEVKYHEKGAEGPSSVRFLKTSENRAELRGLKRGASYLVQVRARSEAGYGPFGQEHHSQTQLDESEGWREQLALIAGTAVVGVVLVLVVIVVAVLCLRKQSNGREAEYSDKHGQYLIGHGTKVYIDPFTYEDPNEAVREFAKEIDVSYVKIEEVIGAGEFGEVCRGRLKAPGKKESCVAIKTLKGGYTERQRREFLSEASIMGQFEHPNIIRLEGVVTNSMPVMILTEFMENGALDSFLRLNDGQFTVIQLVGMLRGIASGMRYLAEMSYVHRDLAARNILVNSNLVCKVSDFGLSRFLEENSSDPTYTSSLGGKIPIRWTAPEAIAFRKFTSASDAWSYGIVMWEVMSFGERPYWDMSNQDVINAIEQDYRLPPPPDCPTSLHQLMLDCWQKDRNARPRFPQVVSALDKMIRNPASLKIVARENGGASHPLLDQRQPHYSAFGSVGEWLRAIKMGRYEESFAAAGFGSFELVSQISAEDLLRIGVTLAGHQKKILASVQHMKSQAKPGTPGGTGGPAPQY
Serine/threonine-protein kinase tousled-like 1, sequence (Q9UKI8 whole entry): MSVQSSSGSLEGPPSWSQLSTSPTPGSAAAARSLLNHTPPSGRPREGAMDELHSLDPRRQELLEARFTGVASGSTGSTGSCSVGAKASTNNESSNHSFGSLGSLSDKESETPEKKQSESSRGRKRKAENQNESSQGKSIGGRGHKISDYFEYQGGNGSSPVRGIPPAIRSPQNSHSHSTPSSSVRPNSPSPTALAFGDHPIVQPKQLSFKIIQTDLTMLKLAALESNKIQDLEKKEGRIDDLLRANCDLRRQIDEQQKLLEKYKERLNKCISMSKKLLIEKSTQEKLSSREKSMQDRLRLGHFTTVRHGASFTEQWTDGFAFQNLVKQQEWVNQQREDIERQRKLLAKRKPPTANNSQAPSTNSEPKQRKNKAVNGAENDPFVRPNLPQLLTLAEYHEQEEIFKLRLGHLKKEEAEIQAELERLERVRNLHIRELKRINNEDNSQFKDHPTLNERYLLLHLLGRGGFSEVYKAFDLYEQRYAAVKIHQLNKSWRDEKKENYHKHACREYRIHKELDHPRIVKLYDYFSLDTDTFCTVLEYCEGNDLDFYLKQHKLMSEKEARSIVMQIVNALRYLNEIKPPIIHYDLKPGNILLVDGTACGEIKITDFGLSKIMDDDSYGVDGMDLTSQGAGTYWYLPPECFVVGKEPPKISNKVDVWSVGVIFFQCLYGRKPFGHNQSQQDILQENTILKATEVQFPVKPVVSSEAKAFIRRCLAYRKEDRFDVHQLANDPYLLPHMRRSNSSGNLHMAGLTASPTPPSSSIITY
Ephrin type-A receptor 8, sequence (P29322 whole entry): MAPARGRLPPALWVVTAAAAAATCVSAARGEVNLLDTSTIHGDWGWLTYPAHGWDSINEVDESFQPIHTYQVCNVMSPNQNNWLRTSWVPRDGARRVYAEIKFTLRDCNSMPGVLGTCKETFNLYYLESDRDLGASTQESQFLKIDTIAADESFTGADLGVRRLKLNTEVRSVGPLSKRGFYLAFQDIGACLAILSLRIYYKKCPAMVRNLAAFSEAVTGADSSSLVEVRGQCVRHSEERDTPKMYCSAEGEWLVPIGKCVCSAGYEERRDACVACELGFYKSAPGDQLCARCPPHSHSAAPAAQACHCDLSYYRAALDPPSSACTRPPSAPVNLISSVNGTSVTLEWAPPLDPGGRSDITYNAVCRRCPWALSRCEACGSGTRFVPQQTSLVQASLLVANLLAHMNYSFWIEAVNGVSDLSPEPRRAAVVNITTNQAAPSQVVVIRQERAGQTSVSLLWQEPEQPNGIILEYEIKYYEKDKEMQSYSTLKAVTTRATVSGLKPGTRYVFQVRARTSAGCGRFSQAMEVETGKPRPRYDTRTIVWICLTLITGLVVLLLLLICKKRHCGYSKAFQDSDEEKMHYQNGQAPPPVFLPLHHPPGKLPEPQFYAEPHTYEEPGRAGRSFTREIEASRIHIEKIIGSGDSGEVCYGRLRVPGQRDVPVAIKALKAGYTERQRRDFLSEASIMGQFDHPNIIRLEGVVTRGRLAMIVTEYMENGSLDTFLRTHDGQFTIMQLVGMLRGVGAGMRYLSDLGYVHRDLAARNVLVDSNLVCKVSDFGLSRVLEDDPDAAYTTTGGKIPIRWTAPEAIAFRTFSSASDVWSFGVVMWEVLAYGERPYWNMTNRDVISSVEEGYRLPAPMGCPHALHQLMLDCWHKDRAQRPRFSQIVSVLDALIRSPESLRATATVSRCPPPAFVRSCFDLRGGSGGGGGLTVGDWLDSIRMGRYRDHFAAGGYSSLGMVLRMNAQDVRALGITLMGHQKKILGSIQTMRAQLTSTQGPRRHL
Tyrosine-protein kinase ITK/TSK, sequence (Q08881 whole entry, canonical isoform): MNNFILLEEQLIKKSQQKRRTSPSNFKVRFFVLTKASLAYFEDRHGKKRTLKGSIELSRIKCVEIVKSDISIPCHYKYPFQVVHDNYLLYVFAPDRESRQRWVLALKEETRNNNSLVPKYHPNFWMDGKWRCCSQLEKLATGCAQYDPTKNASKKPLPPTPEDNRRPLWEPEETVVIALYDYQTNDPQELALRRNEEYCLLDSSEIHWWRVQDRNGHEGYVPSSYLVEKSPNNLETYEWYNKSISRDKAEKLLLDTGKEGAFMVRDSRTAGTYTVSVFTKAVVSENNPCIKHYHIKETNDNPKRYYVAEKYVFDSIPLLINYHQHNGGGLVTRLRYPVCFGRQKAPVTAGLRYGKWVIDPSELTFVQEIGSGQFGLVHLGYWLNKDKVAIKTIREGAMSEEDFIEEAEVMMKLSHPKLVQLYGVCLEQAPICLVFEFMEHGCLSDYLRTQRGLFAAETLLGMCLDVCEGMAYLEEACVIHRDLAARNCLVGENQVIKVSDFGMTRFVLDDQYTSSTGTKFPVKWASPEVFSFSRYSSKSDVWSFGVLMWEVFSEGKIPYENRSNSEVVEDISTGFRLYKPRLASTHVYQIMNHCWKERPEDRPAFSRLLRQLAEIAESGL

CN1C(=O)[C@@H](N2CCc3c(nn(Cc4ccccc4)c3Br)C2=O)COc2ccccc21 [TP-030-2]
IC50 (Aurora kinase B): 1 µM
IC50 [1]: 1 µM
IC50 [2]: 1 µM
inhibition [3]: 9.99%
IC50 [4]: 1 µM
IC50 [5]: 1 µM
IC50 [6]: 1 µM
inhibition [7]: 2%
IC50 [8]: 1 µM
inhibition [9]: -0.19%
IC50 [10]: 1 µM
IC50 (TGF-beta receptor type-1): 1 µM
IC50 [11]: 1 µM
IC50 [12]: 1 µM
IC50 [13]: 1 µM
IC50 [14]: 1 µM
IC50 [15]: 1 µM
IC50 [16]: 1 µM
IC50 [17]: 1 µM
inhibition [18]: 3.31%
IC50 [19]: 1 µM
IC50 (Aurora kinase A): 1 µM
IC50 [20]: 1 µM
inhibition at 60 min, 10 µM [21]: 42% (not active)
inhibition [22]: 8%
IC50 [23]: 1 µM
IC50 [24]: 1 µM
IC50 [25]: 1 µM
IC50 [26]: 1 µM
IC50 [27]: 1 µM
inhibition [28]: -2%
IC50 [29]: 1 µM
IC50 [30]: 1 µM
inhibition [31]: -8%
IC50 (Ephrin type-A receptor 8): 1 µM
inhibition [32]: -4.12%
inhibition [33]: 8.15%
IC50 [34]: 1 µM
IC50 [35]: 1 µM
IC50 [36]: 1 µM
IC50 (Ephrin type-B receptor 4): 1 µM
inhibition [37]: -2%
